The values that follow come from patent US12187709B2 (Genentech, Inc., priority 2021, dated 2025).

One assay has as its target Cbl-b (Homo sapiens (Human), UniProt Q13191). Description: Cbl-b LCK Ub TR-FRET assay (Cbl-b Lck HTRF). The format is biochemical. To be noted: for IC50: Cbl-b LCK Ub TR-FRET; for fold-selectivity (Cbl-b over C-cbl): ratio C-cbl Lck HTRF IC50 / Cbl-b Lck HTRF IC50. An outline of the steps: (§1)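 Detection reagents added, brief spin, 20 min RT. IC50 fit normalized to no-LCK (low) and DMSO (high) controls.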

Another assay deals with c-Cbl (Homo sapiens (Human), UniProt P22681). Description: C-Cbl LCK Ub TR-FRET assay (C-cbl Lck HTRF). The assay is classed as biochemical. A digest of the protocol: as §1
Assay [1] addresses Human Cbl-b (residues 40-426) (Homo sapiens (Human), UniProt Q13191). Description: Cbl-b SPR assay. The assay is classed as binding. The conditions noted are these: for Fold of selectivity: C-cbl SPR Kd vs Cbl-b SPR Kd; for Kd: SPR, 20° C. A digest of the protocol:
(§2)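 Values derive from a 1:1 model fitted to multicycle kinetics on captured protein (1300-1500 RU), using six 2-fold concentrations, 60 s contact and dissociation of 120-1200 s. In the chaser format, kd comes from a single-exponential fit of % site occupancy over time.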

The next assay deals with c-Cbl (residues 47-435) (Homo sapiens (Human), UniProt P22681). Nature of the assay: c-Cbl SPR assay. The format is binding. The conditions noted are these: 20° C. An outline of the steps:
as §2

Chain of c-Cbl (residues 47-435) (P22681 47-435): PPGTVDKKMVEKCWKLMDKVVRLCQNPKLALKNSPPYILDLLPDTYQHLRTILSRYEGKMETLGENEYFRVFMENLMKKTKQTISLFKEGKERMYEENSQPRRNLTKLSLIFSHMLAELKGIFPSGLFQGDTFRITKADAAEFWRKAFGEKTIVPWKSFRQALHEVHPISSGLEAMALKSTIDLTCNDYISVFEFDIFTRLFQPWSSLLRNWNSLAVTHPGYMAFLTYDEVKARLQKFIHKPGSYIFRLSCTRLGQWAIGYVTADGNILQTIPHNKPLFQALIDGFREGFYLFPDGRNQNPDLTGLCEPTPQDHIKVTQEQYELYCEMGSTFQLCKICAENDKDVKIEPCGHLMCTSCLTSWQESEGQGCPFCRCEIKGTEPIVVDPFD
Chain of c-Cbl (P22681 47-435): as above
Chain of Human Cbl-b (residues 40-426) (Q13191 40-426): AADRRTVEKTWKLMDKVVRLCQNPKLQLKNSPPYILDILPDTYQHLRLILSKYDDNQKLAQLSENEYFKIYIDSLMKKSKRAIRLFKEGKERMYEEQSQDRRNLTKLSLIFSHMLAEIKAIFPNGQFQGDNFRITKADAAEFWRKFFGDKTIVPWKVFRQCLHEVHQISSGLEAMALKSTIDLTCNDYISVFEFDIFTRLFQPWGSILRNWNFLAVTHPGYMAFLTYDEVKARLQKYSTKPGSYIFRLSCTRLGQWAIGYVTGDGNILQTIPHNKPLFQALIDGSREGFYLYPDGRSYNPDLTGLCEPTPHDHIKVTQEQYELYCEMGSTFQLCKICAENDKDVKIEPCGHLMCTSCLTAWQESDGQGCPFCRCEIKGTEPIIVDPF
Chain of Cbl-b (Q13191 40-426): as above

In the case of `Cn1cnnc1[C@H](c1cccc(N2Cc3c(cc(CNC4(C)CCC4)cc3C(F)(F)F)C2=O)c1)C1CC1` (single isomer, unassigned) [Compound 343], the IC50 at Cbl-b amounted to 0.29 µM; against c-Cbl, 0.61 µM. For the same molecule, the “fold-selectivity (Cbl-b over C-cbl)” value on Cbl-b is recorded as 2.1x. Moreover, the Fold of selectivity in assay [1] is listed as 6.4×. Further, the Kd in assay [1] amounted to 0.44 µM; on c-Cbl (residues 47-435), 2.8 µM.
For the molecule `Cn1cnnc1[C@H](c1cccc(N2Cc3c(cc(CNC4(C)CCC4)cc3C(F)(F)F)C2=O)c1)n1ccnc1` (single isomer, unassigned) [Compound 345], on Cbl-b, half-maximal inhibition (IC50) was put at 2.4 µM and the “fold-selectivity (Cbl-b over C-cbl)” value turned out to be 4.4x. In addition, it took 11 µM to reach half-maximal inhibition at c-Cbl (IC50). In assay [1], this molecule gave a Fold of selectivity of 3× and a Kd of 1.3 µM. In addition, binding on c-Cbl (residues 47-435) was characterised by a dissociation constant (Kd) of 4.1 µM.
With `Cn1nnnc1[C@@H](c1cccc(N2Cc3c(cc(CNC4(C)CCC4)cc3C(F)(F)F)C2=O)c1)C1COC1` (single isomer, unassigned) [Compound 348], the half-inhibitory concentration (IC50) on Cbl-b is 0.14 µM; against c-Cbl, 0.5 µM. Moreover, on Cbl-b, the “fold-selectivity (Cbl-b over C-cbl)” value is 3.5x. The Fold of selectivity in assay [1] worked out at 8.4×. Besides, the Kd in assay [1] came out at 0.075 µM; at c-Cbl (residues 47-435), 0.63 µM.
As to `Cn1cnnc1C1(c2cccc(N3Cc4c(cc(CNC5(C)CCC5)cc4C(F)(F)F)C3=O)c2)CC(OC(F)(F)F)C1` (single isomer, unassigned) [Compound 351, 2-(3-((1r,3r)-1-(4-methyl-4H-1,2,4-triazol-3-yl)-3-(trifluoromethoxy)cyclobutyl)phenyl)-6-(((1-methylcyclobutyl)amino)methyl)-4-(trifluoromethyl)isoindolin-1-one], on Cbl-b, the IC50 is 0.0064 µM and the “fold-selectivity (Cbl-b over C-cbl)” value amounted to 6.4x. The molecule also yielded an IC50 on c-Cbl of 0.02 µM. In assay [1], the Fold of selectivity was 16× and binding was characterised by a dissociation constant (Kd) of 0.0012 µM. At c-Cbl (residues 47-435), this molecule gave a Kd of 0.019 µM.
For `Cn1ccnc1[C@@H](c1cccc(N2Cc3c(cc(CNC4(C)CCC4)cc3C(F)(F)F)C2=O)c1)C1COC1` (single isomer, unassigned) [Compound 352], at Cbl-b, the IC50 was found to be 0.069 µM and the “fold-selectivity (Cbl-b over C-cbl)” value is 4.1x. The IC50 on c-Cbl is 0.28 µM. In assay [1], this molecule displayed a Fold of selectivity of 7.6× and a Kd of 0.034 µM. In addition, the Kd at c-Cbl (residues 47-435) was found to be 0.27 µM.
On to `Cn1cnnc1C(c1cccc(N2Cc3c(cc(CNC4(C)CCC4)cc3C(F)(F)F)C2=O)c1)[C@H]1C[C@H](Cl)C1` (single isomer, unassigned) [Compound 356], for which, at Cbl-b, the IC50 turned out to be 0.029 µM and the “fold-selectivity (Cbl-b over C-cbl)” value is listed as 6.1x. Further, 0.18 µM corresponded to half-maximal inhibition against c-Cbl (IC50). Also, in assay [1], the Fold of selectivity was determined as 11× and the Kd stood at 0.019 µM. The molecule also displayed a Kd on c-Cbl (residues 47-435) of 0.21 µM.
For the molecule `Cn1cnnc1C(c1cccc(N2Cc3c(cc(CNC4(C)CCC4)cc3C(F)(F)F)C2=O)c1)[C@H]1C[C@@H](Cl)C1` (single isomer, unassigned) [Compound 357], on Cbl-b, the concentration for half-maximal inhibition (IC50) stood at 0.0052 µM and the “fold-selectivity (Cbl-b over C-cbl)” value was 1.4x. This molecule had an IC50 on c-Cbl of 0.0071 µM. Further, in assay [1], the Fold of selectivity was 5.5× and the Kd came to 0.0004 µM. This molecule registered a Kd at c-Cbl (residues 47-435) of 0.0022 µM.
For the molecule `CC[C@@H](c1cccc(N2Cc3c(Cl)cc(CNC4(C)CCC4)cc3C2=O)c1)c1nncn1C` (single isomer, unassigned) [Compound 359], the IC50 against Cbl-b is 0.0048 µM; on c-Cbl, 0.0041 µM. In addition, the “fold-selectivity (Cbl-b over C-cbl)” value on Cbl-b was 0.85x. Also, the Fold of selectivity in assay [1] is 2.1×. In addition, the results for the Kd (in assay [1]; on c-Cbl (residues 47-435)) were 0.0004 µM and 0.00082 µM, respectively.
Take `CO[C@H]1C[C@](c2cccc(N3Cc4c(cc([C@H](N)C(C)(C)C)cc4C(F)(F)F)C3=O)c2)(c2nncn2C)C1` (single isomer, unassigned) [Compound 360]: at Cbl-b, the IC50 stood at 0.092 µM and the “fold-selectivity (Cbl-b over C-cbl)” value is listed as 6.4x. Besides, half-maximal inhibition at c-Cbl (IC50) was put at 0.59 µM. In assay [1], this molecule returned a Fold of selectivity of 10× and a Kd of 0.084 µM. Also, the Kd on c-Cbl (residues 47-435) came to 0.84 µM.
With `CO[C@H]1C[C@](c2cccc(N3Cc4c(cc([C@@H](N)C(C)(C)C)cc4C(F)(F)F)C3=O)c2)(c2nncn2C)C1` (single isomer, unassigned) [Compound 361], the IC50 against Cbl-b is 0.0081 µM; against c-Cbl, 0.036 µM. Also, the “fold-selectivity (Cbl-b over C-cbl)” value at Cbl-b is 4.4x. This molecule displayed a Fold of selectivity in assay [1] of 21×. The dissociation constant (Kd) turned out to be 0.004 µM in assay [1] and 0.084 µM on c-Cbl (residues 47-435).
With `Cn1cnnc1C(c1cccc(N2Cc3c(cc(CNC4(C)CCC4)cc3C(F)(F)F)C2=O)c1)[C@H]1C[C@@H](CC#N)C1` (single isomer, unassigned) [Compound 362], on Cbl-b, inhibition was half-maximal at 0.006 µM (IC50) and the “fold-selectivity (Cbl-b over C-cbl)” value turned out to be 6.3x. On c-Cbl, half-maximal inhibition (IC50) required 0.038 µM. In assay [1], this molecule displayed a Fold of selectivity of 21× and a Kd of 0.0029 µM. The same molecule yielded a Kd at c-Cbl (residues 47-435) of 0.059 µM.
In the case of `Cn1cnnc1C(c1cccc(N2Cc3c(cc(CNC4(C)CCC4)cc3C(F)(F)F)C2=O)c1)[C@H]1C[C@H](CC#N)C1` (single isomer, unassigned) [Compound 363], the values for the IC50 at Cbl-b and at c-Cbl were 0.061 µM and 0.14 µM, respectively. In addition, at Cbl-b, the “fold-selectivity (Cbl-b over C-cbl)” value is 2.3x. In assay [1], this molecule came in with a Fold of selectivity of 3.6×. For the same molecule, the Kd in assay [1] stood at 0.078 µM; on c-Cbl (residues 47-435) it was 0.28 µM.
On to `Cn1cnnc1C(c1cccc(N2Cc3c(cc(CNC4(C)CCC4)cc3C(F)(F)F)C2=O)c1)[C@H]1C[C@H](CC#N)C1` (single isomer, unassigned) [Compound 364], for which the IC50 on Cbl-b is 0.0025 µM; on c-Cbl, 0.0033 µM. Besides, the “fold-selectivity (Cbl-b over C-cbl)” value on Cbl-b is on record as 1.3x. In assay [1], this molecule gave a Fold of selectivity of 4.4×. Further, the Kd in assay [1] was found to be 0.00055 µM; on c-Cbl (residues 47-435), 0.0024 µM.
For `Cn1cnnc1C(c1cccc(N2Cc3c(cc(CNC4(C)CCC4)cc3C(F)(F)F)C2=O)c1)[C@H]1C[C@@H](CC#N)C1` (single isomer, unassigned) [Compound 365], the figures for the IC50 on Cbl-b and against c-Cbl were 0.0048 µM and 0.0059 µM, respectively. Further, the “fold-selectivity (Cbl-b over C-cbl)” value at Cbl-b is on record as 1.2x. Further, the Fold of selectivity in assay [1] stood at 6×. Besides, the Kd stood at 0.00085 µM in assay [1] and 0.0072 µM on c-Cbl (residues 47-435).
Take `CO[C@H]1C[C@@](O)(C(c2cccc(N3Cc4c(cc(CNC5(C)CCC5)cc4C(F)(F)F)C3=O)c2)c2nncn2C)C1` (single isomer, unassigned) [Compound 369]: at Cbl-b, the midpoint of inhibition, the IC50, lay at 0.24 µM and the “fold-selectivity (Cbl-b over C-cbl)” value is recorded as 4.3x. The molecule further returned an IC50 against c-Cbl of 1 µM. For the same molecule, in assay [1], the Fold of selectivity is 7.2× and the Kd came out at 0.21 µM. The same molecule registered a Kd at c-Cbl (residues 47-435) of 1.5 µM.
For `Cn1cnnc1[C@H](c1cccc(N2Cc3c(cc(CNC4(C)CCC4)cc3C(F)(F)F)C2=O)c1)[C@H]1C[C@H](C)C1` (single isomer, unassigned) [Compound 376, 2-(3-((S)-(4-methyl-4H-1,2,4-triazol-3-yl)((1r,3S)-3-methylcyclobutyl)methyl)phenyl)-6-(((1-methylcyclobutyl)amino)methyl)-4-(trifluoromethyl)isoindolin-1-one], the “fold-selectivity (Cbl-b over C-cbl)” value on Cbl-b was determined as 9.0x. The molecule also registered an IC50 at c-Cbl of 0.49 µM. Also, in assay [1], the Fold of selectivity was determined as 16× and the Kd was 0.046 µM. Moreover, the affinity on c-Cbl (residues 47-435), expressed as Kd, was 0.79 µM.
For `Cn1cnnc1[C@H](c1cccc(N2Cc3c(cc(CNC4(C)CCC4)cc3C(F)(F)F)C2=O)c1)[C@H]1C[C@@H](C)C1` (single isomer, unassigned) [Compound 377], the IC50 against Cbl-b amounted to 0.24 µM; at c-Cbl, 2.5 µM. For the same molecule, the “fold-selectivity (Cbl-b over C-cbl)” value on Cbl-b is listed as 11x. Further, in assay [1], the Fold of selectivity stood at 11×. Besides, the Kd was 0.24 µM in assay [1] and 2.6 µM on c-Cbl (residues 47-435).
Consider `Cn1cnnc1[C@@H](c1cccc(N2Cc3c(cc(CNC4(C)CCC4)cc3C(F)(F)F)C2=O)c1)[C@H]1C[C@H](C)C1` (single isomer, unassigned) [Compound 378], for which the figures for the IC50 against Cbl-b and at c-Cbl were 0.0094 µM and 0.056 µM, respectively. On Cbl-b, the “fold-selectivity (Cbl-b over C-cbl)” value was 6.0x. Besides, the Fold of selectivity in assay [1] stood at 14×. For the same molecule, the Kd in assay [1] came out at 0.0069 µM; at c-Cbl (residues 47-435) it was 0.096 µM.
On to `Cn1cnnc1[C@@H](c1cccc(N2Cc3c(cc(CNC4(C)CCC4)cc3C(F)(F)F)C2=O)c1)[C@H]1C[C@@H](C)C1` (single isomer, unassigned) [Compound 379], for which the results for the IC50 against Cbl-b and at c-Cbl were 0.0068 µM and 0.0095 µM, respectively. The “fold-selectivity (Cbl-b over C-cbl)” value on Cbl-b is given as 1.6x. Besides, the Fold of selectivity in assay [1] turned out to be 6.7×. Also, the Kd in assay [1] turned out to be 0.0009 µM; at c-Cbl (residues 47-435), 0.006 µM.
Turning to `Cn1cnnc1[C@@H](c1cccc(N2Cc3c(cc(CNC4(C)CCC4)cc3C(F)(F)F)C2=O)c1)C1(F)COC1` (single isomer, unassigned) [Compound 380], on Cbl-b, the IC50 was determined as 0.006 µM and the “fold-selectivity (Cbl-b over C-cbl)” value is given as 1.2x. Besides, the IC50 on c-Cbl is 0.0071 µM. In assay [1], the Fold of selectivity was determined as 5.0× and binding was characterised by a dissociation constant (Kd) of 0.0008 µM. Further, the Kd at c-Cbl (residues 47-435) was determined as 0.004 µM.
